In patent EP4647061A1, “COMPOSITION CONTAINING RETINOL AND SYNERGIST AND USE THEREOF” (Guangzhou Jiyan Cosmetics Technology Co., Ltd., priority 2024, dated 2025):

Legend:
Type in all cases: cell-based
[1] = system: COL III (type III collagen); test: Transcription of type III collagen (COL III) by qRT-PCR in UVA-stimulated fibroblast model; settings: for PCR Transcription of Type III Collagen (COL III) Up-regulation Rate Compared with NC Group: UVA 30 J/cm^2, (sample - NC)/NC x 100%; for PCR Transcription of Type III Collagen (COL III) Mean Value: UVA 30 J/cm^2, mRNA by 2^-ΔΔCT normalised to BC = 1 (NC 0.67), dosing: TGF-β1 100 ng/mL, Pro-xylane 0.5000%, tetrapeptide-1 0.00109%, encapsulated retinol 0.00313%, combination at the same concentrations, 1440 min
Protocol: (§1) Testing method: based on UVA-stimulated fibroblast model, transcription of type I and type III collagens was tested using qRT-PCR method, and specific steps were as follows: • 1) Cell inoculation: after resuscitation of fibroblasts, when a plating rate reached about 60%, cells were inoculated in a 6-well plate, and incubated overnight in an incubator (37 °C, 5% CO2). • 2) Liquid formulation: according to test schemes (see TABLE 1 and TABLE 2), test substance working solutions were formulated respectively according to mass ratios. TABLE 1 COL I Detection Scheme
(§2) 3) Dosing: according to the test schemes in TABLE 1 and TABLE 2, when the plating rate of the cells in the 6-well plate reached about 30%-50%, dosing was performed for the groups respectively, with each group in triplicate. The blank control group and the negative control group were added with 2 mL of a culture solution per well, the positive control group was added with 2 mL of a TGF-β1-containing culture solution per well, and sample group was added with 2mL of a test sample-containing culture solution at corresponding concentration per well. After the dosing was completed, the 6-well plate continued to be cultured in the CO2 incubator (37 °C, 5% CO2) for 24 h.
(§3) 4) UVA stimulation: according to test groups, except the blank control group, other groups were all subjected to UVA irradiation, with an irradiation dosage of 30 J/cm^2. After the irradiation was finished, culture was continued in the CO2 incubator (37 °C, 5% CO2) for 24 h.
(§4) 5) Cell collection: after incubation was ended, an original solution was sucked out and discarded, PBS cleaning was performed twice, and each well was added with 1 mL of RNAiso Plus, to pipet and lyse the cells, after which samples were collected.
(§5) 6) Detection of gene expression: RNA was extracted and subjected to reverse transcription to cDNA to undergo fluorescence quantitative PCR detection, and result was calculated by a 2^-△△CT method.
(§6) 7) Calculation of up-regulation rate: Up-regulation rate (%) = (Sample group−Negative control group)/(Negative control group) × 100% [formula]
(§7) 8) Data analysis: statistical analysis was performed using t-test method, and normalization processing was performed on amplification factors of mRNA in BC group, where all statistical analysis was double-tailed. Compared with the blank group, significance is expressed by ^#, p<0.05 is expressed by ^#, p<0.01 is expressed by ^##; compared with the negative blank group, significance is expressed by*, p<0.05 is expressed by *, p<0.01 is expressed by **.

[2] = system: COLI (type I collagen); test: Transcription of type I collagen (COL I) by qRT-PCR in UVA-stimulated fibroblast model; settings: for PCR Transcription of Type I Collagen (COL I) Up-regulation Rate Compared with NC Group: UVA 30 J/cm^2, (sample - NC)/NC x 100%; for PCR Transcription of Type I Collagen (COL I) Mean Value: UVA 30 J/cm^2, mRNA by 2^-ΔΔCT normalised to BC = 1 (NC 0.43), dosing: TGF-β1 100 ng/mL, Pro-xylane 0.5000%, tetrapeptide-1 0.00109%, encapsulated retinol 0.00313%, gum 0.00222%, combinations at the same concentrations, 1440 min
Protocol: as §1, §2, §3, §4, §5, §6, §7

[3] = system: CRABP2 cellular retinoic acid binding protein 2; test: Transcription of CRABP2 by qRT-PCR in UVA-stimulated fibroblast model
Protocol: Testing method: based on UVA-stimulated fibroblast model, transcription of CRABP2 was tested using qRT-PCR method, and specific steps were as follows: • 1) Cell inoculation: after resuscitation of cells, when a plating rate reached about 60%, the cells were inoculated in a 6-well plate, and incubated overnight in an incubator (37 °C, 5% CO2). • 2) Liquid formulation: according to a test scheme (see TABLE 5), test substance working solutions were formulated respectively according to mass ratios. TABLE 5 CRABP2 Detection Scheme
as §2, with “According” for “according”, “scheme” for “schemes”, “5,” for “1 and TABLE 2,”, “2 mL” for “2mL”, “h. […]” for “h.”
6) Detection of gene expression: RNA was extracted and subjected to reverse transcription to cDNA to undergo fluorescence quantitative PCR detection, and result was calculated by a 2^-△△CT method. […]

| Compound | PCR Transcription of Type III Collagen (COL III) Up-regulation Rate Compared with NC Group [1] [%] | PCR Transcription of Type III Collagen (COL III) Mean Value [1] | PCR Transcription of Type I Collagen (COL I) Up-regulation Rate Compared with NC Group [2] [%] | PCR Transcription of Type I Collagen (COL I) Mean Value [2] | Transcription of Cellular Retinoic Acid Binding Protein 2 (CRABP2) Up-regulation Rate Compared with NC Group ([3]; UVA 30 J/cm^2, (sample - NC)/NC x 100%) [%] | Transcription of Cellular Retinoic Acid Binding Protein 2 (CRABP2) Mean Value ([3]; UVA 30 J/cm^2, mRNA by 2^-ΔΔCT normalised to BC = 1 (NC 0.48), dosing: TGF-β1 100 ng/mL, gum 0.00222%, encapsulated retinol 0.00313%, tetrapeptide-1 0.00109%, combinations at the same concentrations, 1440 min) |
| --- | --- | --- | --- | --- | --- | --- |
| Tetrapeptide-1 [Comparative Example 2] | 5.97 | 0.71 | 25.58 | 0.54 | 20.83 | 0.58 |
| CC(O)C[C@@H]1OC[C@@H](O)[C@H](O)[C@H]1O (stereo partly shown) [Comparative Example 1, Pro-xylane, reference compound] | 31.34 | 0.88 | 134.88 | 1.01 |  |  |
